Assay results taken from the NIST ThermoML archive (doi:10.1016/j.jct.2009.08.010).
± gives the expanded uncertainty stated by the source.

Test: molar enthalpy of transition or fusion
Details: 298.15 K; Crystal; Flow calorimetry

## Cc1cccc2c1sc1ccccc12 [4-methyldibenzothiophene]
  molar enthalpy of transition or fusion: 21.6 ± 0.335 kcal/mol
